Test results from PubChem BioAssay (NCI).
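Five concentrations, 48 hours, 96-well plates. Definition used: TGI = concentration required for complete inhibition of growth.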

Assays:
Assay in all cases: NCI-60 cell line screen, 48 h
[1] = test system: 786-0 renal
[2] = test system: A498 renal
[3] = test system: A549 NSCLC
[4] = test system: ACHN renal
[5] = test system: BT-549 breast
[6] = test system: CAKI-1 renal
[7] = test system: CCRF-CEM leukemia
[8] = test system: COLO 205 colon
[9] = test system: DU-145 prostate
[10] = test system: EKVX NSCLC
[11] = test system: HCT-116 colon
[12] = test system: HCT-15 colon
[13] = test system: HL-60(TB) leukemia
[14] = test system: HOP-62 NSCLC
[15] = test system: HOP-92 NSCLC
[16] = test system: HS 578T breast
[17] = test system: HT29 colon
[18] = test system: IGROV1 ovarian
[19] = test system: K-562 leukemia
[20] = test system: KM12 colon
[21] = test system: LOX IMVI melanoma
[22] = test system: M14 melanoma
[23] = test system: MALME-3M melanoma
[24] = test system: MCF7 breast
[25] = test system: MDA-MB-231 breast
[26] = test system: MDA-MB-435
[27] = test system: MDA-N
[28] = test system: MOLT-4 leukemia
[29] = test system: NCI-H226 lung
[30] = test system: NCI-H23 lung
[31] = test system: NCI-H460 lung
[32] = test system: NCI/ADR-RES ovarian
[33] = test system: OVCAR-3 ovarian
[34] = test system: OVCAR-4 ovarian
[35] = test system: OVCAR-5 ovarian
[36] = test system: OVCAR-8 ovarian
[37] = test system: PC-3 prostate
[38] = test system: RPMI-8226 leukemia
[39] = test system: RXF 393 renal
[40] = test system: SF-268 CNS
[41] = test system: SF-295 CNS
[42] = test system: SF-539 CNS
[43] = test system: SK-MEL-2 melanoma
[44] = test system: SK-MEL-28 melanoma
[45] = test system: SK-MEL-5 melanoma
[46] = test system: SK-OV-3 ovarian
[47] = test system: SN12C renal
[48] = test system: SNB-19 CNS
[49] = test system: SNB-75 CNS
[50] = test system: SR leukemia
[51] = test system: SW-620 colon
[52] = test system: TK-10 renal
[53] = test system: U251 CNS
[54] = test system: UACC-62 melanoma
[55] = test system: UO-31 renal
[56] = test system: HCC-2998 colon
[57] = test system: NCI-H522 lung
[58] = test system: T-47D breast
[59] = test system: UACC-257 melanoma

SMILES: Cc1nn(C(=O)c2ccccc2O)c2c1C(c1ccc(O)cc1O)SC(N)=N2 (centres undefined)
- TGI [1]: > 10 µM
- TGI [2]: > 10 µM
- TGI [3]: > 10 µM
- TGI [4]: > 10 µM
- TGI [5]: 8.39 µM
- TGI [6]: > 10 µM
- TGI [7]: > 10 µM
- TGI [8]: > 10 µM
- TGI [9]: > 10 µM
- TGI [10]: > 10 µM
- TGI [11]: > 10 µM
- TGI [12]: > 10 µM
- TGI [13]: > 10 µM
- TGI [14]: > 10 µM
- TGI [15]: > 10 µM
- TGI [16]: 8.84 µM
- TGI [17]: > 10 µM
- TGI [18]: > 10 µM
- TGI [19]: > 10 µM
- TGI [20]: > 10 µM
- TGI [21]: > 10 µM
- TGI [22]: > 10 µM
- TGI [23]: > 10 µM
- TGI [24]: > 10 µM
- TGI [25]: > 10 µM
- TGI [26]: > 10 µM
- TGI [27]: > 10 µM
- TGI [28]: > 10 µM
- TGI [29]: 3.82 µM
- TGI [30]: > 10 µM
- TGI [31]: > 10 µM
- TGI [32]: 9.33 µM
- TGI [33]: > 10 µM
- TGI [34]: > 10 µM
- TGI [35]: 3.91 µM
- TGI [36]: > 10 µM
- TGI [37]: > 10 µM
- TGI [38]: > 10 µM
- TGI [39]: > 10 µM
- TGI [40]: > 10 µM
- TGI [41]: > 10 µM
- TGI [42]: > 10 µM
- TGI [43]: > 10 µM
- TGI [44]: > 10 µM
- TGI [45]: > 10 µM
- TGI [46]: > 10 µM
- TGI [47]: > 10 µM
- TGI [48]: > 10 µM
- TGI [49]: > 10 µM
- TGI [50]: > 10 µM
- TGI [51]: > 10 µM
- TGI [52]: > 10 µM
- TGI [53]: > 10 µM
- TGI [54]: 5.71 µM
- TGI [55]: 8.02 µM

SMILES: O=P(O)(O)c1ccc(-c2ccc(I)cc2)cc1
- TGI [1]: > 100 µM
- TGI [3]: > 100 µM
- TGI [4]: > 100 µM
- TGI [5]: > 100 µM
- TGI [6]: > 100 µM
- TGI [7]: > 100 µM
- TGI [8]: > 100 µM
- TGI [9]: > 100 µM
- TGI [10]: > 100 µM
- TGI [56]: > 100 µM
- TGI [11]: > 100 µM
- TGI [12]: > 100 µM
- TGI [13]: > 100 µM
- TGI [14]: > 100 µM
- TGI [16]: > 100 µM
- TGI [17]: > 100 µM
- TGI [18]: > 100 µM
- TGI [19]: > 100 µM
- TGI [20]: > 100 µM
- TGI [21]: > 100 µM
- TGI [22]: > 100 µM
- TGI [23]: > 100 µM
- TGI [24]: > 100 µM
- TGI [25]: > 100 µM
- TGI [27]: > 100 µM
- TGI [28]: > 100 µM
- TGI [29]: > 100 µM
- TGI [30]: > 100 µM
- TGI [31]: > 100 µM
- TGI [57]: > 100 µM
- TGI [32]: > 100 µM
- TGI [34]: > 100 µM
- TGI [35]: > 100 µM
- TGI [36]: > 100 µM
- TGI [37]: > 100 µM
- TGI [38]: > 100 µM
- TGI [39]: > 100 µM
- TGI [40]: > 100 µM
- TGI [42]: > 100 µM
- TGI [43]: > 100 µM
- TGI [44]: > 100 µM
- TGI [45]: > 100 µM
- TGI [46]: > 100 µM
- TGI [47]: > 100 µM
- TGI [48]: > 100 µM
- TGI [49]: > 100 µM
- TGI [50]: > 100 µM
- TGI [51]: > 100 µM
- TGI [58]: > 100 µM
- TGI [52]: > 100 µM
- TGI [53]: > 100 µM
- TGI [59]: > 100 µM
- TGI [54]: > 100 µM
- TGI [55]: > 100 µM
